Converted amounts (≈) assume the structure as drawn.
Tests used:
S. mutans = assay: Anti-bacterial activity (MIC) against S. mutans; format: cell-based, Streptococcus mutans; conditions: for MIC: Streptococcus mutans
[1] = system: methicillin resistant Staphylococcus aureus; assay: Sensitivity of methicillin resistant Staphylococcus aureus; format: cell-based
[2] = system: Vancomycin resistant Enterococci; assay: Sensitivity of Vancomycin resistant Enterococci; format: cell-based
[3] = system: Clinical isolated drug-resistant C. albicans; assay: Sensitivity of clinical isolated drug-resistant C. albicans; format: cell-based, Candida albicans
Experimental: (§1) Bioassays were conducted to further characterize these two compounds.

C. albicans = assay: Anti-fungal activity (MIC) against C. albicans; format: cell-based, Candida albicans; conditions: for MIC: Candida albicans
Experimental: The compositions of the present invention usually have an anti-microbial effect, e.g., anti-G^+ bacteria activity, anti-G^− bacteria activity, anti-fungus activity or effect on bacterial quorum sensing. Methods or assays for testing the anti-microbial activity of a composition are readily available to one skilled in the art. For example, compositions of the present invention can be incubated with a bacterial or fungous culture, and the bacterial or fungous growth can be subsequently examined with a plate reader. Compositions of the present invention can also be examined for their effect on bacterial quorum sensing using either an acyl-homoserine lactone quorum sensing reporter system or a luxS quorum sensing reporter system.
as §1

bacteria = assay: Enhancement of activity of other antibiotics (synergistic effect) in the bioassay; format: cell-based
Text: Perilla was selected for two types of bioactivity. […] The second is its ability to enhance other antibacterial activities through some kind of synergistic effect. When the crude extract was mixed with antibiotics in the bioassay, it could enhance the activity of other antibiotics at a concentration at least 10 times lower than its MIC.

`C=C(C)[C@H](CC=C(C)C)Cc1c(O)cc(OC)c2c1O[C@H](c1ccc(O)cc1O)CC2=O` [kurarinone, 2-(2,4-dihydroxyphenyl)-2,3-dihydro-7-hydroxy-5-methoxy-8-[5-methyl-2-(1-methylethenyl)-4-hexenyl]-4H-1-benzopyran-4-one] was tested, and the MIC (S. mutans) was 4 µg/mL (≈ 9.12 µM), the bactericidal effect (S. mutans; organism not given) was “bactericidal effect” and the “sensitivity of antimicrobial activity to environmental changes” value (S. mutans; pH (4.8-7.4), salt composition (Na, K, Ca), salt concentrations, oxygen levels (anaerobic and aerobic), temperature (120° C.)) was “insensitive”. The “sensitivity of methicillin resistant Staphylococcus aureus to the compound” value [1] was “sensitive” and the “sensitivity of Vancomycin resistant Enterococci to the compound” value [2] was “sensitive”.
For `CC1OC(OC2C(O)[C@H](OC3OC(C)C(O)C(O)C3O)C(CO)O[C@H]2O[C@H]2CC[C@@]3(C)C(=CCC4C5CC6OC7(CC[C@@H](C)CO7)[C@@H](C)C6[C@@]5(C)CCC43)C2)C(O)C(O)C1O` (stereo partly drawn) [Dioscin, (3β,25R)-spirost-5-en-3-yl O-6-deoxy-α-L-mannopyranosyl-(1→2)-O-[6-deoxy-α-L-mannopyranosyl-(1→4)]-β-D-glucopyranoside], the “sensitivity of clinical isolated drug-resistant C. albicans to treatment” value [3] was “still sensitive”, the fungicidal effect (C. albicans) was “fungicidal effect” and the MIC (C. albicans) was roughly 4 µg/mL (≈ 4.6 µM).
`C=C(C)C1CC=C(C=O)CC1` (centres unmarked) [perillaldehyde, 4-(1-methylethenyl)-1-cyclohexene-1-carboxaldehyde] was tested, and the MIC (S. mutans) was 10000 µg/mL (≈ 66600 µM) and the “ability to enhance activity of other antibiotics” value (bacteria) was “enhance activity of other antibiotics in a dose-dependent manner”.
For `CC/C=C\C/C=C\C/C=C\CCCCCCCC(=O)O` [Linolenic acid, (9Z,12Z,15Z)-9,12,15-octadecatrienoic acid], the MIC (S. mutans) was 10 µg/mL (≈ 35.9 µM).
For `CC1OC(OC2[C@H](O[C@H]3CC[C@@]4(C)C(=CCC5C6CC7OC8(CC[C@@H](C)CO8)[C@@H](C)C7[C@@]6(C)CCC54)C3)OC(CO)[C@@H](O[C@@H]3O[C@@H](CO)[C@@H](O)[C@H]3O)[C@@H]2O)C(O)C(O)C1O` (stereo partly drawn) [Polyphyllin D, (3β,25R)-spirost-5-en-3-yl O-α-L-arabinofuranosyl-(1→4)-O-[6-deoxy-α-L-mannopyranosyl-(1→2)]-β-D-glucopyranoside], the “sensitivity of clinical isolated drug-resistant C. albicans to treatment” value [3] was “still sensitive”, the fungicidal effect (C. albicans) was “fungicidal effect” and the MIC (C. albicans) was roughly 2 µg/mL (≈ 2.34 µM).
